Experimental data published in PMC6348381, “Discovery of an MLLT1/3 YEATS Domain Chemical Probe” (Angewandte Chemie (International Ed. in English), 2018).

Key:
TRIM33B = target: T1, TRIM33B (Homo sapiens, UniProt Q9UPN9); experiment: Thermal shift assay, TRIM33B; format: binding
T1 construct: Bromosporine with recombinant human bromodomain proteins; made in house
T1 sequence (Q9UPN9 957-1063 isoform Q9UPN9-2 limits assumed): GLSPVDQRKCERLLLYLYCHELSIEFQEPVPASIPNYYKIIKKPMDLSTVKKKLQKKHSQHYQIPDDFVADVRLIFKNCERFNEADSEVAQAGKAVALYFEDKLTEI
Description: II.VII Thermal Shift Assay[6]
Thermal melting experiments were carried out using an Mx3005p Real Time PCR machine (Stratagene). Proteins were buffered in 10 mM HEPES pH 7.5, 500 mM NaCl and assayed in a 96-well plate at a final concentration of 2 μM in 20 μL volume. Compounds were added at a final concentration of 50 μM. SYPRO Orange (Molecular Probes) was added as a fluorescence probe at a dilution of 1:1000. Excitation and emission filters for the SYPRO-Orange dye were set to 465 nm and 590 nm, respectively. The temperature was raised with a step of 3 °C per minute from 25 °C to 96 °C and fluorescence readings were taken at each interval. The unfolding curves were fitted using the Boltzmann equation to determine the middle point of the transition.

MLLT3 = target: T2, MLLT3 (Homo sapiens, UniProt P42568); experiment: AlphaScreen assay, MLLT3; format: binding; details: Figure 1
T2 construct: made in house; host or cells: E. coli Rosetta
T2 sequence (P42568 1-138 limits assumed): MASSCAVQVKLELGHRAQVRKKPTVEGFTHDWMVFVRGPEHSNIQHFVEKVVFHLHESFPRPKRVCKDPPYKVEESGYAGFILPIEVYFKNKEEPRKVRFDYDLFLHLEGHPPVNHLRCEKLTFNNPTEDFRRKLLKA
Description: Figure 1 Identified hit MLLT1/3 inhibitor compound 1.
II.IV Protein Expression and Purification
Human bromodomains were cloned, expressed and purified as previously described. The cloning, expression and purification of human YEATS domains are described as follows; Sequences for the wild type YEATS domains of MLLT1, MLLT3, GAS41 and YEATS2 were cloned into expression vectors (Table S1). E. coli Rosetta cells were grown in TB medium at 37°C. Overexpression was induced after five hours by addition of IPTG to a final concentration of 0.4 mM and cells were incubated at 17°C overnight. Cells were harvested by centrifugation and the cell pellet was resuspended in cold binding buffer (50 mM Tris at pH 7.5, 500 mM NaCl, 20 mM imidazole, 2 mM DTT) on a magnetic stirring plate at 4°C. The suspension was lysed using an Avestin EmulsiFlex-C5 homogeniser (1 pass without pressure, four passes with pressure between 1000-1500 bar). The lysate was clarified via centrifugation at 16,000 rpm at 4°C for 1 hour (JLA-16 rotor in Beckmann Coulter Avanti J-26S XP centrifuge). The supernatant was loaded onto a standard NiNTA column (HisTrap FF, 5 ml, GE Healthcare Lifesciences) on an ÄKTAxpress system (GE). […] Protein concentration was quantified via extinction at […] (NanoDrop ND-1000 Spectrophotometer) and protein identity was verified via SDS-PAGE and LC/MS. […]

[1] = Metabolic stability in primary human hepatocytes; format: in vitro ADME
Description: page 98: II.IX in vitro Metabolism Studies Metabolic stability studies were carried out exposing nominated compounds to samples of primary human hepatocytes . Compounds were analysed by LC -MS for loss of parent compound at 0, 10, 30, 60 and 120-minute time points and analysis of metabolites formed . […] 1000000 500000 0 0 min 10 min 30 min 60 min 120 min Supplementary Figure 8.

YEATS4 = target: T3, YEATS4 (Homo sapiens, UniProt O95619); experiment: AlphaScreen selectivity screen, YEATS4; format: binding
T3 construct: made in house; host or cells: E. coli Rosetta
T3 sequence (O95619 15-158 limits assumed): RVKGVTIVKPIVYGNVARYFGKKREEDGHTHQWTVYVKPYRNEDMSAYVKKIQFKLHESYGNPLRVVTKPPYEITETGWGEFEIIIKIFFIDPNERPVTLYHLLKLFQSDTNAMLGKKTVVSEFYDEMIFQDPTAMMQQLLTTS
From the text: IC50 (µM) IC50 (µM) IC50 (µM) IC50 (µM) (µM) (µM) (µM)
Supplementary Table 1. […]

TAF1 = TAF1 (Homo sapiens, UniProt P21675); experiment: AlphaScreen selectivity screen, TAF1; format: binding
Sequence of TAF1 (P21675 1522-1656): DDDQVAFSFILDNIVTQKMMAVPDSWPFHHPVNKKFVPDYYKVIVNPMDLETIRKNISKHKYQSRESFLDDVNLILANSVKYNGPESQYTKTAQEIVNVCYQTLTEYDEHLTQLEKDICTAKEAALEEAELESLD

[2] = target: T4, endogenous MLLT1 in HEK293 cells (Homo sapiens, UniProt Q03111); experiment: Cellular thermal shift assay (CETSA), HEK293 cells; format: cell-based; details: Western blot
T4 construct: endogenous in cells; host or cells: HEK293
T4 sequence (Q03111 whole entry): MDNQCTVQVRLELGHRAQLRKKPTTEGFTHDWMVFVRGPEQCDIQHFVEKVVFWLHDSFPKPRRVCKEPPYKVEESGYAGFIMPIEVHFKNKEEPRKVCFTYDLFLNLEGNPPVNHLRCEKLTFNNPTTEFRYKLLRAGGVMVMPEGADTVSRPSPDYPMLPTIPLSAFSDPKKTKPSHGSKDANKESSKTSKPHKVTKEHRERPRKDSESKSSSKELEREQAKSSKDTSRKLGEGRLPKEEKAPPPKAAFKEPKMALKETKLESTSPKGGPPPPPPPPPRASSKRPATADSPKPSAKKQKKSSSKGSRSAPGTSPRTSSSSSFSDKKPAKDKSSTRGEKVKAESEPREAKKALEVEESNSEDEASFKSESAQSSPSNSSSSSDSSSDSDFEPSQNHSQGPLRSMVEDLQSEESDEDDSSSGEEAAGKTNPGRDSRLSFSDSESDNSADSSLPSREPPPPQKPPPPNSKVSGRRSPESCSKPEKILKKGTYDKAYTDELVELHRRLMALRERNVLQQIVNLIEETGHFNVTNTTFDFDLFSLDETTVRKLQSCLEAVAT
Description: Supplementary Table 2. Thermal stabilisation of compound 1, 92 and Bromosporine with recombinant human bromodomain proteins. *50 µM compound concentration. †10 µM compound […]
II.VIII Cellular Thermal Shift Assay[6]
HEK293 and MV4;11 cells were cultured at 37 °C in a humidified 5% CO2 atmosphere in DMEM Medium containing 10% FBS, respectively. Cells were grown until approximately […]
DMSO final concentrati on) for 30 minutes. Cells were then collected, washed with PBS, transferred in PCR tubes, and pelleted by centrifugation (300 g, 3 min, RT.) The PBS was removed, and the cell pellets heated at the indicated temperature for 3 minutes in a PCR machine (UNO96 , VMR) and then placed on ice. Lysis buffer (50 mM Tris pH 7.5, 0.8% v/v NP-40, 5% v/v glycerol, 1.5 mM MgCl2, 100 mM NaCl, 25 mM NaF, 1mM Na3VO4, 1mM PMSF, 1mM DTT, 10 μg/mL TLCK, 1 μg/mL Leupeptin, 1 μg/mL Aprotinin, 1 μg/mL soy bean trypsin, ≥250 units/ mL Benzonase) was added and the cells lysed by 3 freeze -thaw cycles in liquid nitrogen. Aggregated proteins were removed by centrifugation (17000 g, 20 min, 4 °C) and the protein concentration of the retained soluble fraction determined. 4× sample loading buffer (Bio-Rad) containing 20% v/v DTT was added and samples were heated for 6 min at 90 °C prior to separation by SDS -PAGE. […]

| SMILES | Thermal stabilisation, TRIM33B (TRIM33B; 50 μM compound) | IC50 (MLLT3) [µM] | parent remaining after 60 min ([1]; 60 min) [%] | half-life ([1]; human, read-out: metabolic stability t1/2) [min] | IC50 (YEATS4) [µM] | inhibition of TAF1 (TAF1; 10 μM using AS) | IC50 (TAF1; AlphaScreen selectivity screen) [µM] | heat shock stabilisation of endogenous MLLT1 (CETSA) [2] | Thermal stabilisation, TRIM33B (TRIM33B; 10 µM compound concentration) |
| --- | --- | --- | --- | --- | --- | --- | --- | --- | --- |
| COC(=O)c1ccc(C(=O)Nc2ccc3[nH]c(CN4CCCCC4)nc3c2)cc1 [Compound 1] | 0.02 | 1 |  |  |  |  |  |  |  |
| C[C@H]1CCCN1Cc1nc2cc(NC(=O)c3ccc4c(cnn4C)c3)ccc2[nH]1 [Compound 92] | -0.28 |  | 48 | 53 | > 10 | no inhibition | > 10 | stabilisation |  |
| CCOC(=O)Nc1cc(-c2ccc(C)c(NS(C)(=O)=O)c2)nn2c(C)nnc12 [Bromosporine, reference compound] |  |  |  |  |  |  |  |  | 0.03 |
